Data on 21 compounds can be found in US10385057B2, “Pyrazole compounds and methods of making and using same” (Lundbeck La Jolla Research Center, Inc., priority 2015, dated 2019).

As a reminder, the IC50 is the concentration at which inhibition is half-maximal. Low readings indicate higher potency, high ones lower potency.

Test [1] concerns the target T1, MAGL (Mus musculus, UniProt O35678).
T1 construct: mouse brain membrane fraction or cell lysates for mouse assays; from tissue
T1 sequence (O35678 1-303): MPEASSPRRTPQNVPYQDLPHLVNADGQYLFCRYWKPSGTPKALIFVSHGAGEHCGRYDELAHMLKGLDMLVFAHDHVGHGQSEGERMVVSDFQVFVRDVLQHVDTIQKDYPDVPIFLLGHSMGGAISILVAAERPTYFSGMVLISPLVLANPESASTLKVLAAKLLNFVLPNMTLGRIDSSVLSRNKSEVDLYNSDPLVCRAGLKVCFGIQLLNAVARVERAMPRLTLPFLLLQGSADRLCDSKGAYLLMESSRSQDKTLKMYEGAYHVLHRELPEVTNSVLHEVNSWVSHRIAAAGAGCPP
Description: In vitro competitive activity-based protein profiling, mouse MAGL. Format: biochemical. Conditions: for inhibition at 1 µM: read-out: MAGL % inh. 1 μM (mouse). The method, boiled down:
(§1)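 Mouse brain membranes or cell lysates (mouse) and human prefrontal cortex or cell membrane fractions (human), 1.0 mg/mL protein, preincubated with inhibitor 30 min at 37 °C, then FP-Rh or HT-01 probe 30 min at 37 °C. SDS-PAGE; MAGL and FAAH activity from in-gel fluorescence band intensity.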

Test [2] concerns the target T2, FAAH (Mus musculus, UniProt O08914).
T2 construct: mouse brain membrane fraction or cell lysates for mouse assays; from tissue
T2 sequence (O08914 1-579): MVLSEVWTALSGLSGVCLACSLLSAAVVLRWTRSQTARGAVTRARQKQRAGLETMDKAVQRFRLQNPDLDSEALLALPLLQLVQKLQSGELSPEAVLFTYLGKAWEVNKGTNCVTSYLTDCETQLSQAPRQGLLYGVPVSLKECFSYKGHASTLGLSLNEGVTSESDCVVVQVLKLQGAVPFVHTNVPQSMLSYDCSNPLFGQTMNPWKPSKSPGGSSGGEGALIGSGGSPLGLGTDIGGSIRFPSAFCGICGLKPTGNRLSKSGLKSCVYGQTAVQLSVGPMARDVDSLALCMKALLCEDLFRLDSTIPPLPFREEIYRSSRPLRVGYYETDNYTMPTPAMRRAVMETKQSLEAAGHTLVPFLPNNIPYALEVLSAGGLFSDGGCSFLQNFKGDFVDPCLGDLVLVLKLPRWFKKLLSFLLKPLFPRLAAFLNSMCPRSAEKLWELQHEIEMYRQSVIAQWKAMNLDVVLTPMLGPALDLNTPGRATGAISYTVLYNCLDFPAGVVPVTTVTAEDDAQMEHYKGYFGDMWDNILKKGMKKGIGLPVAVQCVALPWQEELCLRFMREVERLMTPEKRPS
Description: In vitro competitive activity-based protein profiling, mouse FAAH. It counts as biochemical. As to conditions: for inhibition at 1 µM: read-out: FAAH % inh. 1 μM (mouse). The method, boiled down: as §1

Regarding `NC(=O)c1cnn(C(=O)N2CC[C@@]3(CCN(Cc4cc(Cl)cc(C(F)(F)F)c4)C3)C2)c1` [Example 192, (R)-1-(7-(3-chloro-5-(trifluoromethyl)benzyl)-2,7-diazaspiro[4.4]nonane-2-carbonyl)-1H-pyrazole-4-carboxamide], the half-maximal inhibitory concentration (IC50) in test [1] and in test [2] was not above 100 nM in each case.

Regarding `NC(=O)c1cnn(C(=O)N2CC[C@]3(CCN(Cc4cc(Cl)cc(C(F)(F)F)c4)C3)C2)c1` [Example 193, (S)-1-(7-(3-chloro-5-(trifluoromethyl)benzyl)-2,7-diazaspiro[4.4]nonane-2-carbonyl)-1H-pyrazole-4-carboxamide], the 50% inhibitory concentration (IC50) in test [1] and in test [2] was not above 100 nM throughout.

Turning to `NC(=O)c1cnn(C(=O)N2CC[C@@]3(CCN(Cc4ccc(N5CCOCC5)cc4C(F)(F)F)C3)C2)c1` [Example 194, (R)-1-(7-(4-morpholino-2-(trifluoromethyl)benzyl)-2,7-diazaspiro[4.4]nonane-2-carbonyl)-1H-pyrazole-4-carboxamide], the inhibition at 1 µM in test [1] and in test [2] was not below 75% throughout.

For `O=C(c1cnn(C(=O)N2CC3CN(Cc4cccc(Oc5ccc(Cl)cc5)c4)CC3C2)c1)N1CCOCC1` (stereo not shown) [Example 199, (5-(3-(4-chlorophenoxy)benzyl)hexahydropyrrolo[3,4-c]pyrrol-2(1H)-yl)(4-(morpholine-4-carbonyl)-1H-pyrazol-1-yl)methanone], in test [1], the IC50 lay in the range of 1000 to 10000 nM and the inhibition at 1 µM lay in the range of 25 to 50%. Besides, in test [2], the IC50 is not above 100 nM and the inhibition at 1 µM is not below 75%.

For the compound `O=C(c1cnn(C(=O)N2CC3CN(Cc4ccc(Oc5ccc(Cl)cc5)cc4)CC3C2)c1)N1CCOCC1` (stereo not shown) [Example 200, (5-(4-(4-chlorophenoxy)benzyl)hexahydropyrrolo[3,4-c]pyrrol-2(1H)-yl)(4-(morpholine-4-carbonyl)-1H-pyrazol-1-yl)methanone], the inhibition at 1 µM in test [1] is 0 to 25%; in test [2], not below 75%. Further, the inhibition at 10 µM in test [1] (10 μM, read-out: MAGL % inh. at 10 μM (mouse)) was 50%; in test [2] (10 μM, read-out: FAAH % inh. at 10 μM (mouse)) it was 100%.

In the case of `NC(=O)c1cnn(C(=O)N2CCC3(CCN(Cc4ccc(-c5nccs5)cc4Cl)C3)C2)c1` (stereo not shown) [Example 201, 1-(7-(2-chloro-4-(thiazol-2-yl)benzyl)-2,7-diazaspiro[4.4]nonane-2-carbonyl)-1H-pyrazole-4-carboxamide], the inhibition at 1 µM in test [1] and in test [2] was not below 75% in each case.

In the case of `NC(=O)c1cnn(C(=O)N2CCC3(CCN(Cc4ccc(Cl)c(Cl)c4)C3)C2)c1` (stereo not shown) [Example 202, 1-(7-(3,4-dichlorobenzyl)-2,7-diazaspiro[4.4]nonane-2-carbonyl)-1H-pyrazole-4-carboxamide], the inhibition at 1 µM in test [1] and in test [2] was not below 75% each time.

Consider `NC(=O)c1cnn(C(=O)N2CCC3(CCN(Cc4ccc(N5CCCC5)cc4C(F)(F)F)C3)C2)c1` (stereo not shown) [Example 203, 1-(7-(4-(pyrrolidin-1-yl)-2-(trifluoromethyl)benzyl)-2,7-diazaspiro[4.4]nonane-2-carbonyl)-1H-pyrazole-4-carboxamide], for which the inhibition at 1 µM in test [1] and in test [2] was not below 75% in each case.

For `NC(=O)c1cnn(C(=O)N2CCC3(CCN(Cc4ccc(N5CCOCC5)cc4Cl)C3)C2)c1` (stereo not shown) [Example 204, 1-(7-(2-chloro-4-morpholinobenzyl)-2,7-diazaspiro[4.4]nonane-2-carbonyl)-1H-pyrazole-4-carboxamide], the inhibition at 1 µM in test [1] and in test [2] was not below 75% throughout.

As to `NC(=O)c1cnn(C(=O)N2CCC3(CCN(Cc4ccc(N5CCCC5)cc4Cl)C3)C2)c1` (stereo not shown) [Example 205, 1-(7-(2-chloro-4-(pyrrolidin-1-yl)benzyl)-2,7-diazaspiro[4.4]nonane-2-carbonyl)-1H-pyrazole-4-carboxamide], the inhibition at 1 µM in test [1] and in test [2] was not below 75% throughout.

For `NC(=O)c1cnn(C(=O)N2CCC3(CCN(Cc4ccc(N5CCOCC5)c(C(F)(F)F)c4)C3)C2)c1` (stereo not shown) [Example 206, 1-(7-(4-morpholino-3-(trifluoromethyl)benzyl)-2,7-diazaspiro[4.4]nonane-2-carbonyl)-1H-pyrazole-4-carboxamide], the inhibition at 1 µM in test [1] and in test [2] was not below 75% each time.

On to `NC(=O)c1cnn(C(=O)N2CCC3(CCN(Cc4ccc(N5CCCC5)c(C(F)(F)F)c4)C3)C2)c1` (stereo not shown) [Example 207, 1-(7-(4-(pyrrolidin-1-yl)-3-(trifluoromethyl)benzyl)-2,7-diazaspiro[4.4]nonane-2-carbonyl)-1H-pyrazole-4-carboxamide], for which the inhibition at 1 µM in test [1] and in test [2] was not below 75% each time.

In the case of `NC(=O)c1cnn(C(=O)N2CCC3(CCN(Cc4ccc(C(F)(F)F)c(N5CCOCC5)c4)C3)C2)c1` (stereo not shown) [Example 208, 1-(7-(3-morpholino-4-(trifluoromethyl)benzyl)-2,7-diazaspiro[4.4]nonane-2-carbonyl)-1H-pyrazole-4-carboxamide], the inhibition at 1 µM in test [1] and in test [2] was not below 75% in each case.

In the case of `NC(=O)c1cnn(C(=O)N2CCC3(CCN(Cc4ccc(C(F)(F)F)c(N5CCCC5)c4)C3)C2)c1` (stereo not shown) [Example 209, 1-(7-(3-(pyrrolidin-1-yl)-4-(trifluoromethyl)benzyl)-2,7-diazaspiro[4.4]nonane-2-carbonyl)-1H-pyrazole-4-carboxamide], the inhibition at 1 µM in test [1] and in test [2] was not below 75% each time.

As to `NC(=O)c1cnn(C(=O)N2CCC3(CCN(Cc4cc(N5CCCC5)cc(C(F)(F)F)c4)C3)C2)c1` (stereo not shown) [Example 211, 1-(7-(3-(pyrrolidin-1-yl)-5-(trifluoromethyl)benzyl)-2,7-diazaspiro[4.4]nonane-2-carbonyl)-1H-pyrazole-4-carboxamide], the inhibition at 1 µM in test [1] and in test [2] was not below 75% throughout.

For `NC(=O)c1cnn(C(=O)N2CCC3(CCN(Cc4cc(N5CCOCC5)ccc4C(F)(F)F)C3)C2)c1` (stereo not shown) [Example 212, 1-(7-(5-morpholino-2-(trifluoromethyl)benzyl)-2,7-diazaspiro[4.4]nonane-2-carbonyl)-1H-pyrazole-4-carboxamide], the inhibition at 1 µM in test [1] and in test [2] was not below 75% each time.

For `NC(=O)c1cnn(C(=O)N2CCC3(CCN(Cc4cc(N5CCCC5)ccc4C(F)(F)F)C3)C2)c1` (stereo not shown) [Example 213, 1-(7-(5-(pyrrolidin-1-yl)-2-(trifluoromethyl)benzyl)-2,7-diazaspiro[4.4]nonane-2-carbonyl)-1H-pyrazole-4-carboxamide], the inhibition at 1 µM in test [1] is not below 75%; in test [2], 50 to 75%.

For `CN(Cc1cc(C(F)(F)F)ccc1Cl)[C@H]1C[C@@H]2CN(C(=O)n3cc(C(N)=O)cn3)C[C@@H]2C1` [Example 214, 1-(trans-5-((2-chloro-5-(trifluoromethyl)benzyl)(methyl)amino)octahydrocyclopenta[c]pyrrole-2-carbonyl)-1H-pyrazole-4-carboxamide], the inhibition at 1 µM in test [1] and in test [2] was not below 75% each time.

For the compound `CN(Cc1cc(Cl)ccc1C(F)(F)F)[C@H]1C[C@@H]2CN(C(=O)n3cc(C(N)=O)cn3)C[C@@H]2C1` [Example 215, 1-(trans-5-((5-chloro-2-(trifluoromethyl)benzyl)(methyl)amino)octahydrocyclopenta[c]pyrrole-2-carbonyl)-1H-pyrazole-4-carboxamide], the inhibition at 1 µM in test [1] and in test [2] was not below 75% throughout.

Consider `CN(Cc1ccc(C(F)(F)F)c(N2CCCC2)c1)[C@H]1C[C@@H]2CN(C(=O)n3cc(C(N)=O)cn3)C[C@@H]2C1` [Example 216, 1-(trans-5-(methyl(3-(pyrrolidin-1-yl)-4-(trifluoromethyl)benzyl)amino)octahydrocyclopenta[c]pyrrole-2-carbonyl)-1H-pyrazole-4-carboxamide], for which the inhibition at 1 µM in test [1] and in test [2] was not below 75% throughout.

For the compound `CN(Cc1cc(N2CCCC2)cc(C(F)(F)F)c1)[C@H]1C[C@@H]2CN(C(=O)n3cc(C(N)=O)cn3)C[C@@H]2C1` [Example 217, 1-(trans-5-(methyl(3-(pyrroldin-1-yl)-5-(trifluoromethyl)benzyl)amino)octahydrocyclopenta[c]pyrrole-2-carbonyl)-1H-pyrazole-4-carboxamide], the inhibition at 1 µM in test [1] and in test [2] was not below 75% throughout.
